Experimental data: publication PMC9738591, “N-[1,3-Dialkyl(aryl)-2-oxoimidazolidin-4-ylidene]-aryl(alkyl)sulphonamides as Novel Selective Human Cannabinoid Type 2 Receptor (hCB2R) Ligands; Insights into the Mechanism of Receptor Activation/Deactivation” (Molecules, 2022)
Read-outs that look alike come from different tables or passages of the source.

How the values were obtained:
human recombinant CB1R = biological target: T1, human recombinant CB1R (Homo sapiens, UniProt P21554); test: Competition binding assay, displacement of [3H]-CP-55,940 from membranes of HEK-293 cells overexpressing CB1R; conditions: for Ki: [3H]-CP-55,940 displacement, HEK-293 membranes, 90 min at 30 °C, Cheng-Prusoff, read-out: Ki hCB1R (µM ± S.E.); for inhibition at 10 µM: read-out: % Displacement/ Max. Conc. Tested, hCB1R
T1 construct: purchased Perkin-Elmer, Italy; host or cells: HEK-293 cells (membranes)
Experimental: (§1) The binding affinities (Ki values) of the compounds for human recombinant hCB1R and hCB2R were determined as previously described, using SR144528 as a reference compound [30], and are reported in Table 1.
(§2) Compound affinity for CB1R and CB2R was measured as previously reported. […] Competition curves were performed by displacing [^3H]-CP-55 940 with increasing concentrations of compounds (0.1 nM–10 or 25 μM). […] All compounds were tested following the procedure described by the manufacturer (Perkin-Elmer, Italy). Displacement curves were generated by incubating drugs with [^3H]-CP-55 940 for 90 min at 30 °C. Ki values were calculated by applying the Cheng−Prusoff equation to the IC50 values for the displacement of the bound radioligand by increasing concentrations of the test compound. Data represent the mean values of three independent experiments performed in duplicate and are expressed as the average of Ki (µM) ± standard deviation. Data were analyzed using PRISM.9.3 software (GraphPad Software Inc, San Diego, CA, USA).

human CB2R = human CB2R (Homo sapiens, UniProt P34972); test: Competition binding assay, displacement of [3H]-CP-55,940 from membranes of HEK-293 cells overexpressing CB2R; set-up: purchased Perkin-Elmer, Italy; host or cells: HEK-293 cells (membranes); conditions: for Ki: [3H]-CP-55,940 displacement, HEK-293 membranes, 90 min at 30 °C, Cheng-Prusoff, read-out: Ki hCB2R (µM ± S.E.)
Experimental: as §1, §2

[1] = max conc. tested 10 µM, read-out: % Displacement/ Max Conc. Tested, hCB2R (converted)

T1 sequence (P21554 whole entry): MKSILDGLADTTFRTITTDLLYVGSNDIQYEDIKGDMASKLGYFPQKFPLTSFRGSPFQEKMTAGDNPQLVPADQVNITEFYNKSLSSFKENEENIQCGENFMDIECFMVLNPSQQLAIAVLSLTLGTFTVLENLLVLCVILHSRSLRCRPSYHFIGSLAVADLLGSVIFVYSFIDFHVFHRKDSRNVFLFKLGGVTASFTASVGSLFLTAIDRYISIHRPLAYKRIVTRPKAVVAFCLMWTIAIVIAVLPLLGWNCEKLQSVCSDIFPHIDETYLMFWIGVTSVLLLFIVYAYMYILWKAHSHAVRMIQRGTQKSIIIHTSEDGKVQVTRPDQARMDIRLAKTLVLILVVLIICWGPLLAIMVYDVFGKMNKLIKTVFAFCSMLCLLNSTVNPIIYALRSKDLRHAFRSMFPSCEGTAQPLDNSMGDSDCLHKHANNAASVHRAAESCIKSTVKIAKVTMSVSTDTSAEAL
human CB2R, sequence (P34972 whole entry): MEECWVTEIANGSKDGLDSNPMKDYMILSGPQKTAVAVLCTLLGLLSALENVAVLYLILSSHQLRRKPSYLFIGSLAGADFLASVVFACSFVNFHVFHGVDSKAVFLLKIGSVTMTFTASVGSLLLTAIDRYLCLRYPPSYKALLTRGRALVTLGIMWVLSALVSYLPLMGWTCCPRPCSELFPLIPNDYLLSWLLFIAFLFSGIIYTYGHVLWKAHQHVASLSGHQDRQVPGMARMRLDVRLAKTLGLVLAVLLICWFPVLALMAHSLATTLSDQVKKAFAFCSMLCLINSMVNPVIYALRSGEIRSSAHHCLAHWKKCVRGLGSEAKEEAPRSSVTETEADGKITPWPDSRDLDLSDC

With `CCN1CC(=NS(=O)(=O)c2ccc(C)cc2)N(CC)C1=O` [Compound 1, N-[1,3-Diethyl-2-oxoimidazolidin-4-ylidene]-4-methylbenzenesulfonamide] the Ki (human recombinant CB1R) was over 10 µM, the inhibition at 10 µM (human recombinant CB1R; max conc. tested 10 µM) was 8.78% and the Ki (human CB2R) was over 10 µM. The inhibition at 10 µM (human CB2R; [1]) was 7.7%.

In the case of `CN1CC(=NS(=O)(=O)c2ccccc2)N(C)C1=O` [Compound 4a, N-[1,3-Dimethyl-2-oxoimidazolidin-4-ylidene]benzenesulfonamide], the Ki (human recombinant CB1R) is reported as over 10 µM, the inhibition at 10 µM (human recombinant CB1R; max conc. tested 10 µM) is reported as 32.8% and the Ki (human CB2R) is reported as over 10 µM. It also gave an inhibition at 10 µM (human CB2R; [1]) of 6.19%.

With `Cc1ccc(S(=O)(=O)N=C2CN(C)C(=O)N2C)cc1` [Compound 4b, N-[1,3-Dimethyl-2-oxoimidazolidin-4-ylidene]-4-methylbenzenesulfonamide] the Ki (human recombinant CB1R) was over 10 µM, the inhibition at 10 µM (human recombinant CB1R; max conc. tested 10 µM) was 26.9% and the Ki (human CB2R) was over 10 µM. The inhibition at 10 µM (human CB2R; [1]) was 7.08%.

Work on `CN1CC(=NS(=O)(=O)c2ccc(Cl)cc2)N(C)C1=O` [Compound 4c, 4-Chloro-N-[1,3-dimethyl-2-oxoimidazolidin-4-ylidene]benzenesulfonamide] yielded a Ki (human recombinant CB1R) of over 10 µM, an inhibition at 10 µM (human recombinant CB1R; max conc. tested 10 µM) of 47.5% and a Ki (human CB2R) of over 10 µM. The inhibition at 10 µM (human CB2R; [1]) was 12.3%.

Compound `CN1CC(=NS(=O)(=O)c2ccc(Br)cc2)N(C)C1=O` [Compound 4d, 4-Bromo-N-[1,3-dimethyl-2-oxoimidazolidin-4-ylidene]benzenesulfonamide] has a Ki (human recombinant CB1R) of over 10 µM, an inhibition at 10 µM (human recombinant CB1R; max conc. tested 10 µM) of 14.9% and a Ki (human CB2R) of over 10 µM. It also gave an inhibition at 10 µM (human CB2R; [1]) of 10.7%.

`CCN1CC(=NS(=O)(=O)c2ccccc2)N(CC)C1=O` [Compound 4e, N-[1,3-Diethyl-2-oxoimidazolidin-4-ylidene]benzenesulfonamide] was tested, and the Ki (human recombinant CB1R) was over 10 µM, the inhibition at 10 µM (human recombinant CB1R; max conc. tested 10 µM) was 22.7% and the Ki (human CB2R) was over 10 µM. For the same compound, the inhibition at 10 µM (human CB2R; [1]) was 7.72%.

With `CCN1CC(=NS(=O)(=O)c2ccc(Cl)cc2)N(CC)C1=O` [Compound 4f, 4-Chloro-N-[1,3-diethyl-2-oxoimidazolidin-4-ylidene]benzenesulfonamide] the Ki (human recombinant CB1R) was over 10 µM, the inhibition at 10 µM (human recombinant CB1R; max conc. tested 10 µM) was 17.8% and the Ki (human CB2R) was over 10 µM. For the same compound, the inhibition at 10 µM (human CB2R; [1]) was 14.9%.

`CCN1CC(=NS(=O)(=O)c2ccc(Br)cc2)N(CC)C1=O` [Compound 4g, 4-Bromo-N-[1,3-diethyl-2-oxoimidazolidin-4-ylidene]benzenesulfonamide] showed a Ki (human recombinant CB1R) of over 10 µM, an inhibition at 10 µM (human recombinant CB1R; max conc. tested 10 µM) of 20.6% and a Ki (human CB2R) of over 10 µM. For the same compound, the inhibition at 10 µM (human CB2R; [1]) was 13.4%.

With `CC(C)(C)N1CC(=NS(C)(=O)=O)N(c2ccccc2)C1=O` [Compound 9a, N-[1-tert-Butyl-2-oxo-3-phenylimidazolidin-4-ylidene]-methanesulfonamide] the Ki (human recombinant CB1R) was over 10 µM, the inhibition at 10 µM (human recombinant CB1R) was 9.48% and the Ki (human CB2R) was over 10 µM. The inhibition at 10 µM (human CB2R; [1]) was 8.84%.

`CC(C)(C)N1CC(=NS(=O)(=O)c2ccccc2)N(c2ccccc2)C1=O` [Compound 9b, N-[1-tert-Butyl-2-oxo-3-phenylimidazolidin-4-ylidene]benzenesulfonamide] gave a Ki (human recombinant CB1R) of over 10 µM, an inhibition at 10 µM (human recombinant CB1R) of 12% and a Ki (human CB2R) of over 10 µM. The inhibition at 10 µM (human CB2R; [1]) was 22.6%.

`Cc1ccc(S(=O)(=O)N=C2CN(C(C)(C)C)C(=O)N2c2ccccc2)cc1` [Compound 9c, N-[1-tert-Butyl-2-oxo-3-phenylimidazolidin-4-ylidene]-4-methylbenzenesulfonamide] gave a Ki (human recombinant CB1R) of over 10 µM, an inhibition at 10 µM (human recombinant CB1R) of 7.22% and a Ki (human CB2R) of over 10 µM. For the same compound, the inhibition at 10 µM (human CB2R; [1]) was 5.39%.

Compound `CC(C)(C)N1CC(=NS(=O)(=O)c2ccc(Br)cc2)N(c2ccccc2)C1=O` [Compound 9d, 4-Bromo-N-[1-tert-butyl-2-oxo-3-phenylimidazolidin-4-ylidene]benzenesulfonamide] has an inhibition at 10 µM (human recombinant CB1R; max conc. tested 10 µM) of 17.4%, a Ki (human CB2R) of over 10 µM and an inhibition at 10 µM (human CB2R; read-out: % Displacement/ Max Conc. Tested, hCB2R) of 53.5%.

`CC(C)(C)N1CC(=NS(=O)(=O)c2cccc(Br)c2)N(c2ccccc2)C1=O` [Compound 9e, 3-Bromo-N-[1-tert-butyl-2-oxo-3-phenylimidazolidin-4-ylidene]benzenesulfonamide] gave a Ki (human recombinant CB1R) of over 10 µM, an inhibition at 10 µM (human recombinant CB1R; max conc. tested 10 µM) of 4.64% and a Ki (human CB2R) of over 10 µM. It also gave an inhibition at 10 µM (human CB2R; [1]) of 24.1%.
